# In PMC5566834 (2017):
# System: Rd 13 (DNA, aptamer) CGGGGGGAGGCGGAGGGAGGACTGGGGCTTCATTGACGTTCTTCACAGTAGGGGTAAGGGCTTAGGTGGTTGGTGCCTG
# Experiment: competitive fluorescence anisotropy
# Details: 140 mM Na+, 2 mM K+, 5 mM Mg2+, 2 mM Ca2+; 20 mM Tris pH 7.4; PosBD displaced; 1,000 pmol drug in 125 μl; less than posaconazole
smiles,measurement,value
OC(Cn1cncn1)(Cn1cncn1)c1ccc(F)cc1F,binding,weak
